Source: publication PMC9387934, “Randomized single oral dose phase 1 study of safety, tolerability, and pharmacokinetics of Iminosugar UV-4 Hydrochloride (UV-4B) in healthy subjects” (PLoS Neglected Tropical Diseases, 2022)
Where a name gives a salt, the structure may show the parent alone. Read-outs that look alike come from different tables or passages of the source.

Key:
[1] = set-up: method as in Investigator’s Brochure (IB); conditions: single oral dose, ferrets; ref Investigator’s Brochure (IB); cited from earlier work
[2] = tested on: CYP2C9; set-up: method as in Investigator’s Brochure (IB); conditions: in vitro; ref Investigator’s Brochure (IB); cited from earlier work
[3] = human, mouse, rat, and dog liver microsomes and hepatocytes; ref Investigator’s Brochure (IB); cited from earlier work
[4] = set-up: method as in Investigator’s Brochure (IB); conditions: rat, average; ref Investigator’s Brochure (IB); cited from earlier work
[5] = tested on: ER α-glucosidase enzymes; set-up: method as in PMID 32227946; conditions: single dose of UV-4; cited from earlier work
[6] = Cardiovascular assessment in dogs, single dose GLP study (UV4-COV-0023); type: in vivo; conditions: dog, 50 mg/kg
From the text: dependent from lowest to highest partitioning in mouse, rat, human, and dog. Mean blood cell partitioning ranged from 29.7% to 37.2% in mouse, 32.1% to 35.1% in rat, 32.7% to 53.3% in human, and 58.6% to 63.8% in dog. […]
hepatocytes. Metabolism was minimal and appears to involve O-demethylation, oxidation, and direct glucuronidation of UV-4. Three metabolites were tentatively identified in mouse and dog hepatocytes, whereas only the O-demethylation and oxidation metabolites, but not the direct glucuronidation product of UV-4, were found in human hepatocytes.
Following a single oral dose, UV-4 appears to be rapidly excreted with t1/2 values ranging from 2 hours in ferrets, 3 to 5 hours in mice and rats, and 4 to 9 hours in dogs. In rats, urinary excretion of UV-4 after an oral dose of UV-4B was rapid, with the highest percent dose excreted in the initial 0 to 4 hour period after dosing. […]
Based on the dog NOAEL [10 mg/kg/dose TID] and the appropriate conversion recommended in the FDA guidance (e.g., 60 kg body weight for humans), the HED for the NOAEL of UV-4B in dog is 333 mg TID. Considering that the lowest dose tested in dogs (2 mg/kg TID or expressed as HED, 67 mg TID) was associated with decreases in PLT count (mild), increases in aPTT (very mild), increases in AST (up to 3x BL), and histopathological changes, a 100-fold safety factor was applied to the NOAEL. […]

[7] = cited from earlier work
[8] = set-up: method as in Investigator’s Brochure (IB); conditions: ref Investigator’s Brochure (IB), cited from earlier work
[9] = set-up: method as in Investigator’s Brochure (IB); conditions: mice, up to 250 mg/kg TID (750 mg/kg/day); ref Investigator’s Brochure (IB); cited from earlier work
[10] = compared with UV-4; cited from earlier work
[11] = set-up: method as in Investigator’s Brochure (IB); conditions: in vivo; ref Investigator’s Brochure (IB); cited from earlier work
[12] = dog, 2 TID mg/kg, Day 28 (Recovery)
[13] = dog, 10 TID mg/kg (NOAEL), Day 28 (Recovery)
[14] = dogs, 10 mg/kg/dose TID, ref Investigator’s Brochure (IB)

Question: What does the source list for COCCCCCCCCCN1C[C@H](O)[C@@H](O)[C@H](O)[C@H]1CO [UV-4, N-(9’-methoxynonyl)-1-deoxynojirimycin]?
Answer: t1/2 [1]: 2 h; Direct inhibition of CYP2C9 [2]: No clinically relevant direct inhibition; Metabolic stability [3]: metabolically stable; Bioavailability [4]: ≥ 99%; Duration of pharmacodynamic effect on the target ER α-glucosidase enzymes [5]: at least 72 hours

Question: Which “Multiple of predicted minimum clinically efficacious dose at which arterial pulse pressure decreased” value [6] does the source give for COCCCCCCCCCN1C[C@H](O)[C@@H](O)[C@H](O)[C@H]1CO [UV-4B, N-(9’-methoxynonyl)-1-deoxynojirimycin hydrochloride] here?
Answer: Its value is “approximately 30 fold”.

Question: And the AST [7, 12]?
Answer: The AST was “−”.

Question: And the Decreased thymus weight [7, 12]?
Answer: Its Decreased thymus weight is “−”.

Question: And the Lymphocyte depletion [7, 12]?
Answer: The Lymphocyte depletion was “−”.

Question: What about the PLT [7, 12] of the same compound?
Answer: The PLT was “−”.

Question: What about the Decreased thymus weight ([7]; dog, 10 TID mg/kg (NOAEL), Day 28 (Recovery), females) of the same compound?
Answer: Its Decreased thymus weight is “−(F)”.

Question: What about the Decreased thymus weight ([7]; dog, 10 TID mg/kg (NOAEL), Day 28 (Recovery), males) of the same compound?
Answer: Its Decreased thymus weight is “↓(M)”.

Question: What about the ALT [7, 13] of the same compound?
Answer: Its ALT is “−”.

Question: What about the AST [7, 13] of the same compound?
Answer: The AST was “−”.

Question: What about the “Inverted AST/ALT ratio” value [7, 13] of the same compound?
Answer: The value was “−”.

Question: And the “Lymphoid depletion in thymus, spleen, lymph nodes and GALT” value [7, 13]?
Answer: The value was “−”.

Question: And the Nonformed feces [7, 13]?
Answer: Its Nonformed feces is “−”.

Question: What about the PLT [7, 13] of the same compound?
Answer: The PLT was “−”.

Question: What about the Reticulocyte count [7, 13] of the same compound?
Answer: Its Reticulocyte count is “−”.

Question: And the aPTT [7, 13]?
Answer: The aPTT was “−”.

Question: What about the “Increase in ALT” value [7, 14] of the same compound?
Answer: The value was “up to 2.9 x BL”.

Question: What about the “Increase in AST” value [7, 14] of the same compound?
Answer: Its value is “up to 9.7 x BL”.

Question: What about the “Increase in aPTT” value [7, 14] of the same compound?
Answer: Its value is 2.2 x BL.

Question: What about the NOAEL ([7]; dogs, 14 days of TID administration, ref Investigator’s Brochure (IB)) of the same compound?
Answer: Its NOAEL is 30 mg/kg/day.

Question: What about the “No observed effect level (NOEL)” value ([7]; dogs, 14 days, lowest dose exceeded the NOEL, ref Investigator’s Brochure (IB)) of the same compound?
Answer: The value was under 2 mg/kg/dose TID.

Question: What about the NOAEL ([7]; dogs, 14 days, ref Investigator’s Brochure (IB)) of the same compound?
Answer: The NOAEL was 10 mg/kg/dose TID.

Question: And the “Average (male and female) AUC(0-8)” value ([7]; dogs, end of dosing phase, at NOAEL 30 mg/kg/day, ref Investigator’s Brochure (IB))?
Answer: Its value is 10,940 ng•h/mL.

Question: And the Fertility finding ([8]; male and female rats, 50 mg/kg/day before mating through Gestation Day 13)?
Answer: The Fertility finding was “decreased pregnancy and fertility indices”.

Question: What about the Finding in males ([8]; rats, all doses (8, 20, and 50 mg/kg/day)) of the same compound?
Answer: The Finding in males was “decreased sperm motility”.

Question: And the CNS assessments [9]?
Answer: Its CNS assessments is “no adverse treatment-related effects”.

Question: And the “Solubility of the hydrochloride salt” value [10]?
Answer: Its value is “higher solubility”.

Question: What about the “Mouse bone marrow micronucleus” value [11] of the same compound?
Answer: Its value is “not found to be mutagenic or clastogenic”.
